We go through 3 compounds from patent US20080153872A1, “Bis-(Coumarin) Compounds With Anti-Inflammatory Activity” (priority 2005, published 2008).

One test concerns IL-10. The test can be described thus: Inhibition of IL-10 production by ConA stimulated mouse splenocytes. As to conditions: 25 μM. The test is classed as cell-based. As for the experimental part:
(§1) Spleen cell suspension was obtained from BALB/c mice and lymphocytes separated by gradient density centrifugation on Histopaque 1.083 on 400 g for 30 minutes. They were washed once in medium, counted and their number adjusted as 3×10^5/200 μL/well in 96 flat bottomed culture plate in RPMI supplemented with 10% fetal bovine serum. Cells were stimulated on cytokine production by adding concanavalinA (ConA) at 5 μg/mL final concentration. Unstimulated cells were cultured in medium alone. Stock solution was prepared out of testing compounds as 10 mM in DMSO. Final concentrations made in cell culture medium were tested when they had been added together with ConA. After 72 hours incubation period cell culture supernatants were collected. In each sample IL-4, IL-5, IL-10 and IFNγ were detected and quantified using enzyme linked immunosorbent assay (ELISA) specific for pointed cytokines (R&D Systems).
(§2) To calculate results, standard curve was made out of measured OD values for recombinant protein in known concentrations. Cytokine content in unknown samples was calculated out of OD values extrapolated from the standard curve.
(§3) Percentage of inhibition is calculated using formula:
(§4) % Inhibition=(1−cytokine concentration of sample/cytokine concentration of positive control)×100.

The test system of another test is IL-5. As to the kind of experiment: Inhibition of IL-5 production by ConA stimulated mouse splenocytes. The test is classed as cell-based. The following applies: 25 μM. How it is done: as §1, §2, §3, §4
For a further test, the system named is IL-4. As to the kind of experiment: Inhibition of IL-4 production by ConA stimulated mouse splenocytes. The following applies: 25 μM. The test is classed as cell-based. How it is done:
as §1, §2, §3, §4

A further test relates to CD1 mice. As to the kind of experiment: PMA induced ear oedema in CD1 mice. Format: in vivo, mouse. As to conditions: topical, single dose of 250 or 100 μg/15 μL/ear; statistically significant vs positive control. How it is done: Male CD1 mice (Iffa Credo, France) weighing ˜35-40 g were randomly grouped (n=8 in vehicle treated test group, dexamethasone treated control group as well as in groups treated with compounds to be assayed). Test compounds, dexamethasone as well as vehicle (Trans-phase Delivery System, containing benzyl alcohol 10%, acetone 40% and isopropanol 50%) (all from Kemika, Croatia), were administered topically to the internal surface of the left ear thirty minutes prior to administration of phorbol 12-myristate 13-acetate (PMA) (Alexis biochemicals, USA). Test compounds were administered at a single dose of 250 or 100 μg/15 μL/ear and dexamethasone at a single dose of 50 μg/15 μL/ear. Thirty minutes later, 0.01% PMA solution in acetone was applied topically to the same area of each animal in a volume of 12 μL/ear. During the treatment and challenge, animals were anaesthetized by using inhalation anaesthesia. Six hours after the challenge, animals were euthanized by asphyxiation in 100% CO2 atmosphere. For assessing the auricular oedema, 8 mm discs were cut out of left and right auricular pinna and weighed. The degree of oedema was calculated by subtracting the weight of 8 mm disc of the untreated ear from that of the treated contralateral ear.

The test system of a further test is IL-1β. As to the kind of experiment: Inhibition of IL-1β production by LPS stimulated human peripheral blood mononuclear cells (hPBMCs). Format: cell-based. The following applies: 25 μM. How it is done: Blood was taken from healthy volunteer donor, diluted with the same volume of saline and was separated by gradient density centrifugation on FicollPaque™ Plus on 400 g for 30 minutes. PBMCs were collected, washed in RPMI, counted and number per mL was adjusted.
Collected PBMCs were cultured into 96 well tissue culture plate, flat bottom as 35.000 cells/well/200 uL in RPMI supplemented with 10% fetal bovine serum, prior inactivated on 56° C. for 30 minutes. Cells were stimulated on IL-1 production by adding LPS (serotype 0111:B4, Sigma, cat# L-2630), at final concentration 1 ng/mL. Unstimulated cells were cultured in medium alone. Stock solution was prepared out of testing compounds as 10 mM in DMSO. Final concentrations made in cell culture medium were tested when they had been added together with LPS. […] Negative and positive control samples were prepared in sextaplicates and samples with tested compound concentrations in triplicates. After overnight incubation in humidified atmosphere containing 5% CO2, supernatants were collected.
Harvested cell culture supernatants were quantified for IL-1β content by enzyme linked immunosorbent assay (ELISA).
as §3, §4

For a further test, the system named is IFNγ. As to the kind of experiment: Inhibition of IFNγ production by ConA stimulated mouse splenocytes. The following applies: 25 μM. Format: cell-based. As for the experimental part:
as §1, §2, §3, §4

The subject of another test is Balb/cJ mice. As to the kind of experiment: LPS induced pulmonary neutrophilia in mice. The test is classed as in vivo, mouse. As to conditions: LPS challenged mice; i.n., i.p. or per os. As for the experimental part:
Male Balb/cJ mice (Iffa Credo, France) weighing ˜25 g are randomly grouped into a negative control group, positive control group and groups treated with compounds to be assayed). Test compounds, as well as vehicle (DMSO+0.5% methyl-cellulose) (all from Sigma), are administered i.n., ip. or per os two hours prior to administration of lipopolysaccharide (LPS) (E. coli, serotype 0111:B4, Sigma) or two hours prior and two hours after administration of LPS. Test compounds are administered at a single dose (two hours prior the challenge) or divided into two doses (two hours prior and two hours after the challenge). LPS solution in phosphate buffered saline (PBS) (Sigma) is administered intranasally in volume of 60 μL at concentration of 33,33 μg/mL, to all experimental groups except the negative control group, which received the same volume (60 μL) of vehicle PBS. During the challenge, animals were anaesthetized by using intraperitoneal anaesthesia. Animals are euthanized by i.p. anesthesia overdose approximately 24 hours after application of LPS to obtain bronchoalveolar lavage fluid (BALF), which is used to determine total protein concentration as well as concentrations of cytokines, such as IL-1β and TNF-α, absolute number of cells, and percentage of neutrophils in BALF. Bronchoalveolar lavage (BAL) is performed by infusing 1 mL of PBS divided into 3 separate volumes (0.4, 0.3 and 0.3 ml) through trachea into the lungs. The fluid is immediately withdrawn and the cell suspension stored into previously prepared 1.5 mL Eppendorf tube. Bronchoalveolar lavage fluid (BALF) is then centrifuged at […] for 5 min (4° C.). Cells are resuspended in 700 μL of PBS. To prepare cytospins, 320 μL of suspension is centrifuged at 250 rpm for 10 min (Cytospin-3, Shandon Instruments). Cells are stained with Dif-Quik (Dade Behring) to determine percentage of neutrophils by counting of at least 200 cells. The remaining resuspended cells are used for total cell count in BALF analysis (Sysmex SF 3000). […] Accumulation of granulocytes and mononuclear cells in peribronclhial (PB) and perivascular (PV) lung tissue areas and alveolar spaces is monitored.
Results can be expressed as (I) decrease of absolute cell number per mL in BALF, (II) decrease of number of neutrophils per mL in BALF, (III) reduction of relative number (percentage) of neutrophils in BALF, (IV) reduction of cytokine concentrations in BALF, as well as (V) suppression of accumulation of granulocytes and mononuclear cells in peribronchial (PB) and perivascular (PV) lung tissue areas and in alveolar spaces by pathohistological scoring of treated animals compared to positive control (LPS stimulated, but untreated animals).

For the next test, the system named is Balb/C mice. The test can be described thus: Ovalbumin induced pulmonary eosinophilia in mice. The test is classed as in vivo, mouse. As to conditions: OVA sensitized and challenged mice; i.n., i.p. or per os. As for the experimental part:
Male Balb/C mice with a body weight of 20-25 g are randomly divided into groups, and sensitized by an i.p. injection of ovalbumin (OVA, Sigma) on day zero and day fourteen. On the twentieth day, the mice are subjected to a challenge test by i.n. (intranasal) application of OVA (positive control or test groups) or PBS (negative control). The compounds are administered daily i.n., i.p. or per os in different doses starting 2 days before the challenge and up to the completion of the test. Compounds are administered as suspension either in PBS, methyl cellulose or carboxymethyl cellulose with addition od DMSO (up to 5% of the total volume). 48 hours after i.n. application of OVA, the animals are then anaesthetized to obtain bronchoalveolar lavage fluid (BALF), which is used to determine total protein concentration as well as concentrations of cytokines such as IL-1β and TNF-α, absolute number of cells, and percentage of eosinophils in BALF. Bronchoalveolar lavage (BAL) is performed by infusing 1 mL of PBS divided into 3 separate volumes (0.4, 0.3 and 0.3 ml) through trachea into the lungs. The fluid is immediately withdrawn and the cell suspension stored into previously prepared 1.5 mL Eppendorf tube. Bronchoalveolar lavage fluid (BALF) is then centrifuged at […] for 5 min (4° C.). Cells are resuspended in 700 μL of PBS. To prepare cytospins, 320 μL of suspension is centrifuged at 250 rpm for 10 min (Cytospin-3, Shandon Instruments). Cells are stained with Dif-Quik (Dade Behring) to determine percentage of eosinophils by counting of at least 100 cells. The remaining resuspended cells are used for total cell count in BALF analysis (Sysmex SF 3000). Finally, lungs are sampled and stored into 10% formalin for pathohistological evaluation of eosinophil and mononuclear infiltrate. Accumulation of eosinophils and mononuclear cells in peribronchial (PB) and perivascular (PV) lung tissue areas and in alveolar spaces is monitored.
Results can be expressed as (I) decrease of absolute cell number per mL in BALF, (II) decrease of number of eosinophils per mL in BALF, (III) reduction of relative number (percentage) of eosinophils in BALF, (IV) reduction of cytokine concentrations in BALF, as well as (V) suppression of accumulation of eosinophils and mononuclear cells in peribronchial (PB) and perivascular (PV) lung tissue areas and in alveolar spaces by pathohistological scoring of treated animals compared to positive control (OVA stimulated, but untreated animals).
Fluticasone and beclomethasone are used as standard anti-inflammatory substances, and compared for ability to inhibit eosinophilia to the negative and positive controls.

A further test deals with RBL-2H3 cell line. As to the kind of experiment: IgE-induced RBL-2H3 mast cell degranulation (Fcε receptor type I). Format: cell-based, rat. As to conditions: concentrations from 200-50 μM; RBL-2H3 cells; stimulus not specified. How it is done: RBL-2H3 cell line of rat basophilic leukaemia (ATCC) was used for the investigation of inhibition of degranulation induced by the activation of Fcε receptor type I or calcium ionophors. RBL-2H3 cell line was cultivated in DMEM medium (Invitrogen Cat. No. 31966-021) with 10% of phoetal calf serum (Invitrogen Corporation) at 37° C., 5% CO2, 90% relative humidity. Cells were seeded in the same medium into 24-well plates, 50000 per well, and left to reach 80-90% of confluence.
Dilutions of compounds were prepared in DMEM medium without phenol red (Invitrogen Corporation) in concentrations from 200 μM to 1 μM. The medium was removed from the cells and the diluted of compounds were added to the wells with the exception of the positive and the negative control where pure DMEM medium was added. Subsequently,
1. for the IgE-induced degranulation by Fcs receptor type I, a solution of SPE-1 (dinitrophenyl specific IgE) antibodies (Sigma) and dinitrophenylalbumin (Sigma), both in a final concentration of 0.5 μg/mL,
In the case of the negative control wells, pure DMEM medium was added. The cells were incubated for one hour at 37° C., 5% CO2, and 90% relative humidity. Each dilution as well as the positive and the negative controls were performed in triplicate. The supernatant (50 μL) was transferred in duplicate to a 96-well plate. […] The absorbance was measured at […]. […]

Each structure is given as a SMILES string.

Regarding `CCc1ccc2oc(=O)c(C(c3ccc(O)cc3)c3c(O)c4cc(CC)ccc4oc3=O)c(O)c2c1` [Example 244], the “inhibition of IL-10 production” value in the test with IL-10 is on record as “significantly inhibited”. For the same compound, the “inhibition of IL-5 production” value in the test on IL-5 is “significantly inhibited”. In the test with IL-4, the “inhibition of IL-4 production” value is given as “significantly inhibited”. Moreover, in the test on CD1 mice, the “suppression of ear oedema” value is recorded as “considered active”. In addition, the “inhibition of IL-1β production” value with IL-1β is on record as “significantly inhibited”. For the same compound, the “inhibition of IFNγ production” value in the test on IFNγ is reported as “significantly inhibited”.

Consider `Cc1cc2oc(=O)c(C(c3c(O)c4cc(C)c(C)cc4oc3=O)C(C)O)c(O)c2cc1C` (stereo not shown) [Example 363], for which, in the test with Balb/cJ mice, the “reduction of percentage of neutrophils and/or their total number in BALF and/or by histological scoring” value is on record as “statistically significant reduction”. Also, the “reduction of percentage of eosinophils and/or their total number in BALF and/or by histological scoring” value in the test on Balb/C mice is “statistically significant reduction”. Moreover, the “suppression of ear oedema” value in the test with CD1 mice is given as “considered active”.

With `CN1CCC(=C2c3ccccc3CC(=O)c3sccc32)CC1` [Ketotifen, ketotifen], the “inhibition of degranulation (standard)” value in the test with RBL-2H3 cell line is given as “significantly inhibits degranulation”.
